Measurements from ChEMBL document CHEMBL1255464, “Ethambutol optimal clinical dose and susceptibility breakpoint identification by use of a novel pharmacokinetic-pharmacodynamic model of disseminated intracellular Mycobacterium avium” (Antimicrob Agents Chemother, 2010).
Converted amounts (≈) assume the structure as drawn.

Columns and labels:
Mycobacterium avium [1] = test: Antimycobacterial activity against Mycobacterium avium ATCC 700898 infected in human THP1 cells; format: functional, THP-1
Mycobacterium avium [2] = test: Antimycobacterial activity against Mycobacterium avium ATCC 700898 infected in human THP1 cells assessed as extracellular bacterial killing; format: functional; settings: ATCC 700898, THP-1
Mycobacterium avium [3] = test: Antimycobacterial activity against Mycobacterium avium ATCC 700898 infected in human THP1 cells assessed as extracellular bacterial killing after 7 days; format: functional, organism-based; settings: ATCC 700898, THP-1, 168 h
Mycobacterium avium [4] = test: Antimycobacterial activity against Mycobacterium avium ATCC 700898 infected in human THP1 cells assessed as intracellular bacterial killing; format: functional; settings: ATCC 700898, THP-1
Mycobacterium avium [5] = test: Antimycobacterial activity against Mycobacterium avium ATCC 700898 infected in human THP1 cells assessed as intracellular bacterial killing after 7 days; format: functional, organism-based; settings: ATCC 700898, THP-1, 168 h
THP-1 = test: Cytotoxicity against human THP1 cells; format: cell-based

Structure (SMILES): CC[C@@H](CO)NCCN[C@@H](CC)CO [ETHAMBUTOL]
- MIC (Mycobacterium avium [1]): 8 µg/mL (≈ 39.2 µM)
- Emax (Mycobacterium avium [2]): 5.54 log10 CFU/ml
- EC50 (Mycobacterium avium [3]): 5.38 µg/mL (≈ 26.3 µM)
- Emax (Mycobacterium avium [4]): 0.67 log10 CFU/ml
- EC50 (Mycobacterium avium [5]): 7.93 µg/mL (≈ 38.8 µM)
- Activity (THP-1): Non-toxic
